Test results published in article PMC7179180, “Novel 2,4-Disubstituted-1,3-Thiazole Derivatives: Synthesis, Anti-Candida Activity Evaluation and Interaction with Bovine Serum Albumine” (Molecules, 2020).

target: T1, bovine serum albumin (BSA) (Bos taurus, UniProt P02769); assay: Trp fluorescence quenching; type: binding; details: pH 7.4, room temperature, BSA 1.5 μM, double-log
T1 construct: gene ALB; native plasma protein, commercial BSA fraction V (Merck), mature single chain of 583 residues, no further purification
T1 sequence (P02769 25-607): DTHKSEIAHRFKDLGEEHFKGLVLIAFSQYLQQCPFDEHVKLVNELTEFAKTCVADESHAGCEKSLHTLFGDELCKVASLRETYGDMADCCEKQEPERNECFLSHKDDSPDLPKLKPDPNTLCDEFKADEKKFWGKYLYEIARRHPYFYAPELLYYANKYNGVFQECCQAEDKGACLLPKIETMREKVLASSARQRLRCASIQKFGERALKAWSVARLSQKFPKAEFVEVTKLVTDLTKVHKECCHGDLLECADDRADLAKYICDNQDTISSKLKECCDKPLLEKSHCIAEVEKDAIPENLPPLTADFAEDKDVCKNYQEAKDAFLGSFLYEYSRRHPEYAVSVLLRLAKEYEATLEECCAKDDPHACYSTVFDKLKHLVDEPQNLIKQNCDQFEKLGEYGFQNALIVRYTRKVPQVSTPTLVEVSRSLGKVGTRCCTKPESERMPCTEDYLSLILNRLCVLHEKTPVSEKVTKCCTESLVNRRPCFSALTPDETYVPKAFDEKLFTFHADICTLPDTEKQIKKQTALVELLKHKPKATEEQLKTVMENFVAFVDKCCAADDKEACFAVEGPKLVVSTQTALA
Excerpt: Trp fluorescence quenching on bovine serum albumin (BSA)

Row | SMILES | Kb × 10^4 (M^-1)
1 | COc1ccc(-c2csc(COc3cc(C)ccc3C(C)C)n2)cc1 [4a, 2-((2-isopropyl-5-methylphenoxy)methyl)-4-(4-methoxyphenyl)thiazole] | 6.60 × 10^4 M^-1
2 | Cc1ccc(C(C)C)c(OCc2nc(-c3ccc(Cl)cc3)cs2)c1 [4b, 4-(4-chlorophenyl)-2-((2-isopropyl-5-methylphenoxy)methyl)thiazole] | 6.98 × 10^4 M^-1
3 | Cc1ccc(C(C)C)c(OCc2nc(-c3ccc(Br)cc3)cs2)c1 [4c, 4-(4-bromophenyl)-2-((2-isopropyl-5-methylphenoxy)methyl)thiazole] | 2.61 × 10^4 M^-1
4 | Cc1ccc(C(C)C)c(OCc2nc(-c3ccc4ccccc4c3)cs2)c1 [4d, 2-((2-isopropyl-5-methylphenoxy)methyl)-4-(naphthalen-2-yl)thiazole] | 8.51 × 10^4 M^-1
5 | COc1ccc(-c2csc(NN=C(COc3cc(C)ccc3C(C)C)c3ccccc3)n2)cc1 [7a, 2-(2-(2-(2-isopropyl-5-methylphenoxy)-1-phenylethylidene)hydrazineyl)-4-(4-methoxyphenyl)thiazole] | 5.64 × 10^4 M^-1
6 | Cc1ccc(C(C)C)c(OCC(=NNc2nc(-c3ccc(Cl)cc3)cs2)c2ccccc2)c1 [7b, 4-(4-chlorophenyl)-2-(2-(2-(2-isopropyl-5-methylphenoxy)-1-phenylethylidene)hydrazineyl)thiazole] | 18.02 × 10^4 M^-1
7 | Cc1ccc(C(C)C)c(OCC(=NNc2nc(-c3ccc(Br)cc3)cs2)c2ccccc2)c1 [7c, 4-(4-bromophenyl)-2-(2-(2-(2-isopropyl-5-methylphenoxy)-1-phenylethylidene)hydrazineyl)thiazole] | 1.85 × 10^4 M^-1
8 | Cc1ccc(C(C)C)c(OCC(=NNc2nc(-c3ccc4ccccc4c3)cs2)c2ccccc2)c1 [7d, 2-(2-(2-(2-isopropyl-5-methylphenoxy)-1-phenylethylidene)hydrazineyl)-4-(naphthalen-2-yl)thiazole] | 9.14 × 10^4 M^-1
